According to patent US8148391B2 (Cephalon, Inc., priority 2006, dated 2012):
Read-outs that look alike come from different tables or passages of the source.

How the values were obtained:
[1] = molecular target: T1, baculovirus-expressed ALK (Homo sapiens, UniProt Q9UM73); test: ALK Kinase Assay (ELISA-type, time-resolved fluorescence); assay type: biochemical
T1 construct: host or cells: baculovirus expression system
How it was run: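 Plates coated with phospholipase C-γ substrate (10 μg/mL in TBS); reaction started with 30 ng/ml ALK and run 15 min at 37° C. Phosphorylated substrate detected with Eu-N1-labeled PT66 antibody. IC50 from sigmoidal variable-slope fit of percent inhibition vs log concentration.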

[2] = molecular target: T2, c-Met (cytoplasmic domain) (Homo sapiens, UniProt P08581); test: c-Met Kinase Assay (same methods as for ALK, with modifications); assay type: biochemical
T2 construct: 10 ng/mL c-Met (cytoplasmic domain, Invitrogen Corporation #PV3143); purchased Invitrogen Corporation PV3143
How it was run: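 Europium-labeled PT66 antibody (Eu-N1) detects substrate phosphorylation on wells coated with phospholipase C-γ at 10 μg/mL. The kinase, the cytoplasmic domain of c-Met at 10 ng/mL, starts the reaction, which proceeds 15 minutes at 37° C.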

[3] = ALK kinase inhibition, 1 μM ATP, read-out: ALK Activity
[4] = c-Met kinase inhibition, 1 μM ATP, read-out: cMet Activity
[5] = 1 μM ATP (Km level), 30 ng/ml ALK, 37° C., 15 minutes, read-out: ALK Activity (ALK kinase inhibition, IC50 class)
[6] = 1 μM ATP (Km level), 10 ng/mL c-Met, read-out: cMet Activity (c-Met kinase inhibition, IC50 class)
[7] = 1 μM ATP (Km level), read-out: ALK Activity (ALK Kinase Inhibition, IC50)
[8] = 1 μM ATP (Km level), read-out: cMet Activity (c-Met Kinase Inhibition, IC50)
[9] = ALK kinase inhibition, 1 μM ATP (Km level), read-out: ALK Activity
[10] = c-Met kinase inhibition, 1 μM ATP (Km level), read-out: cMet Activity

T2 sequence (P08581 956-1390 limits assumed): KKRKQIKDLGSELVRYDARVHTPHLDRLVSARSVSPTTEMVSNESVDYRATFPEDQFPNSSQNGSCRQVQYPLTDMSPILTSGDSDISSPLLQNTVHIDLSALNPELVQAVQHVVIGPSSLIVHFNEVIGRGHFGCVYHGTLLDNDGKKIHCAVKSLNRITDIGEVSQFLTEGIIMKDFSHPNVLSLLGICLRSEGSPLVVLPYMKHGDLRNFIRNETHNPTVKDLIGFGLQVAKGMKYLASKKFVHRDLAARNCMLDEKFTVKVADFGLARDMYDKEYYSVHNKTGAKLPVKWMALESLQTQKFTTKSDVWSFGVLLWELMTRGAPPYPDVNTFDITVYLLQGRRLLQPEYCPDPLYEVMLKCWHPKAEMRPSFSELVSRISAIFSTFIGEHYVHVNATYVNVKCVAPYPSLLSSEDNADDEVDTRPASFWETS
T1 sequence (Q9UM73 19-1620): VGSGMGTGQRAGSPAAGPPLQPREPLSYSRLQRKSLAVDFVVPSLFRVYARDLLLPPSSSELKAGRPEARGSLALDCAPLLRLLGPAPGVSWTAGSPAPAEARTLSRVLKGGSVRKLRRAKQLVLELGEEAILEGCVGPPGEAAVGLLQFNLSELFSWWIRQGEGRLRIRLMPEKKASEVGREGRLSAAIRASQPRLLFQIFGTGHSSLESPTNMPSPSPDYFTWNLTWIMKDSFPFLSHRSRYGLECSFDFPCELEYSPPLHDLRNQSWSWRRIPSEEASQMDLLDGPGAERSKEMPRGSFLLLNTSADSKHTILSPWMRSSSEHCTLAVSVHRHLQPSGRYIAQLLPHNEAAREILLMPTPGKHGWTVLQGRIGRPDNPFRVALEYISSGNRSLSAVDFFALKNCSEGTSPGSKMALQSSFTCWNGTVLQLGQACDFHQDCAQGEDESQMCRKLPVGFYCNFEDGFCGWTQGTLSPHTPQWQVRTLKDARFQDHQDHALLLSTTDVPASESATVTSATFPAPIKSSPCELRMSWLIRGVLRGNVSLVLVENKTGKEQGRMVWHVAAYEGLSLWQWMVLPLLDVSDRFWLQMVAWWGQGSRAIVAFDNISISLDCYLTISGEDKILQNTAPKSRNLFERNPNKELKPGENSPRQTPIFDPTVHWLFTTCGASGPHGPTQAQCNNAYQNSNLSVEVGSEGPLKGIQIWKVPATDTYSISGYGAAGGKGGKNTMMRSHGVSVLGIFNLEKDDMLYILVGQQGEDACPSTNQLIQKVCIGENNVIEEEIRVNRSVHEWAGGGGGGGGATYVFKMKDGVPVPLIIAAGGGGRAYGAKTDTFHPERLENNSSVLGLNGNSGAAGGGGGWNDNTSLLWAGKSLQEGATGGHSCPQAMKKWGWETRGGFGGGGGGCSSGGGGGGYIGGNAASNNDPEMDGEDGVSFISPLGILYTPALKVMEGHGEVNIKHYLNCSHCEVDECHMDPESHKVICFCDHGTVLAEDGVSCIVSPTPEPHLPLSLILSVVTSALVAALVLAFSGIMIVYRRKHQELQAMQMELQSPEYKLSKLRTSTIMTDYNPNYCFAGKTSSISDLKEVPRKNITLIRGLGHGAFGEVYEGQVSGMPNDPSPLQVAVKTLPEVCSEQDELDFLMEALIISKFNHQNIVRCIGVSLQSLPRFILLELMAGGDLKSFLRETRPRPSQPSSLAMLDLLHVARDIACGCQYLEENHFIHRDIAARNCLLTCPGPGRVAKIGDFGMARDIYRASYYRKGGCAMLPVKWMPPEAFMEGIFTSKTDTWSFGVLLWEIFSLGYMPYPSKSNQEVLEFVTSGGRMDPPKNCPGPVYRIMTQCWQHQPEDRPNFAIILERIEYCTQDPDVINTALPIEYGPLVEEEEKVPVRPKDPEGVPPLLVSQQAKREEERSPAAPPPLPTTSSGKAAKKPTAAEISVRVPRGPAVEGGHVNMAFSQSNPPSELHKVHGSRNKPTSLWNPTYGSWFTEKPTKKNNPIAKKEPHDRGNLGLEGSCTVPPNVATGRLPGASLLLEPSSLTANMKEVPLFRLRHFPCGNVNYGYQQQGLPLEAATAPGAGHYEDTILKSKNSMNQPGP

**Q.** Which IC50 [1, 3] does the source give for `CCN1C(=O)CCC(C)(C)c2ccc(Nc3ncc(Cl)c(Nc4c(F)cccc4OCC#N)n3)cc21` [Example 1520, {2-[5-Chloro-2-(1-ethyl-5,5-dimethyl-2-oxo-2,3,4,5-tetrahydro-1H-1-benzazepin-8-ylamino)-pyrimidin-4-ylamino]-3-fluoro-phenoxy}-acetonitrile] here?
**A.** The IC50 was < 0.1 µM.

**Q.** What about the IC50 [2, 4] of the same compound?
**A.** Its IC50 is < 0.1 µM.

**Q.** Which IC50 [1, 5] does the source give for `CCN1C(=O)C(N(C)C)CCc2c1ccc(Nc1ncc(Cl)c(Nc3ccccc3-n3cccn3)n1)c2OC` (stereo not shown) [Example 1349, 7-[5-Chloro-4-(2-pyrazol-1-yl-phenylamino)-pyrimidin-2-ylamino]-3-dimethylamino-1-ethyl-6-methoxy-1,3,4,5-tetrahydro-benzo[b]azepin-2-one] here?
**A.** Its IC50 is < 0.1 µM.

**Q.** What about the IC50 [2, 6] of the same compound?
**A.** Its IC50 is > 10 µM.

**Q.** `Cn1ccnc1-c1ccccc1Nc1nc(Nc2ccc3c(c2)CCC(NCC(F)F)CC3)ncc1Cl` (stereo not shown) [Example 661, 5-Chloro-N*2*-[7-(2,2-difluoro-ethylamino)-6,7,8,9-tetrahydro-5H-benzocyclohepten-2-yl]-N*4*-[2-(1-methyl-1H-imidazol-2-yl)-phenyl]-pyrimidine-2,4-diamine] was tested. Which IC50 [1, 7] did it give?
**A.** The IC50 was 0.1 to 1 µM.

**Q.** And the IC50 [2, 8]?
**A.** Its IC50 is 0.1 to 1 µM.

**Q.** `CCN1CC2CC(C1)c1cc(Nc3ncc(Cl)c(NC4C5C=CC(C5)C4C(N)=O)n3)ccc12` (stereo not drawn) [Example 160, (2-exo,3-exo)-3-[5-Chloro-2-(10-ethyl-10-aza-tricyclo[6.3.1.0*2,7*]dodeca-2,4,6-trien-4-ylamino)-pyrimidin-4-ylamino]-bicyclo[2.2.1]hept-5-ene-2-carboxylic acid amide] was tested. Which IC50 [1, 9] did it give?
**A.** Its IC50 is 0.1 to 1 µM.

**Q.** What about the IC50 [2, 10] of the same compound?
**A.** Its IC50 is 1 to 10 µM.

**Q.** With `COCCN1CCc2cc(Nc3ncc(Cl)c(Nc4cc(C(N)=O)ccc4OC)n3)c(OC)cc2CC1` [Example 1140, 3-{5-Chloro-2-[8-methoxy-3-(2-methoxy-ethyl)-2,3,4,5-tetrahydro-1H-benzo[d]azepin-7-ylamino]-pyrimidin-4-ylamino}-4-methoxy-benzamide] as the compound, how does the IC50 [1, 5] read?
**A.** Its IC50 is 1 to 10 µM.

**Q.** And the IC50 [2, 6]?
**A.** The IC50 was > 10 µM.

**Q.** How did the IC50 [1, 9] turn out when `CNC(=O)c1ccccc1Nc1nc(Nc2ccc3c(c2)COCC2CCCCN32)ncc1Cl` (stereo not shown) [Example 14, 2-[5-Chloro-2-(7,7a,8,9,10,11-hexahydro-5H-6-oxa-11a-aza-dibenzo[a,c]cyclohepten-3-ylamino)-pyrimidin-4-ylamino]-N-methyl-benzamide] was run?
**A.** Its IC50 is < 0.1 µM.

**Q.** And the IC50 [2, 10]?
**A.** The IC50 was < 0.1 µM.

**Q.** Which IC50 [1, 5] does the source give for `COc1cc2c(cc1Nc1ncc(Cl)c(Nc3ccc(C(N)=O)cc3OC)n1)CCN(CCS(C)(=O)=O)CC2` [Example 1161, 4-{5-Chloro-2-[3-(2-methanesulfonyl-ethyl)-8-methoxy-2,3,4,5-tetrahydro-1H-benzo[d]azepin-7-ylamino]-pyrimidin-4-ylamino}-3-methoxy-benzamide] here?
**A.** The IC50 was < 0.1 µM.

**Q.** And the IC50 [2, 6]?
**A.** The IC50 was > 10 µM.

**Q.** With `CNC(=O)c1ccccc1Nc1nc(Nc2ccc3c(c2)CNC(=O)CCN3C(C)=O)ncc1Cl` [Example 1305, 2-[2-(1-Acetyl-4-oxo-1,2,3,4,5,6-hexahydro-benzo[b][1,5]diazocin-8-ylamino)-5-chloro-pyrimidin-4-ylamino]-N-methyl-benzamide] as the compound, how does the IC50 [1, 5] read?
**A.** The IC50 was < 0.1 µM.

**Q.** And the IC50 [2, 6]?
**A.** The IC50 was < 0.1 µM.

**Q.** For `CNC(=O)c1scc(C)c1Nc1nc(Nc2ccc3c(c2)NC(=O)CN(C(=O)C(F)(F)F)C3)ncc1Cl` [Example 1866, 3-{5-Chloro-2-[2-oxo-4-(2,2,2-trifluoro-acetyl)-2,3,4,5-tetrahydro-1H-benzo[e][1,4]diazepin-8-ylamino]-pyrimidin-4-ylamino}-4-methyl-thiophene-2-carboxylic acid methylamide], which IC50 [1, 3] is on record?
**A.** The IC50 was 1 to 10 µM.

**Q.** And the IC50 [2, 4]?
**A.** Its IC50 is 0.1 to 1 µM.

**Q.** What does the source list for `CNC(=O)c1ccccc1Nc1nc(Nc2ccc3c(c2)NC(=O)CN(C)C3)ncc1Cl` [Example 1867, 2-[5-Chloro-2-(4-methyl-2-oxo-2,3,4,5-tetrahydro-1H-benzo[e][1,4]diazepin-8-ylamino)-pyrimidin-4-ylamino]-N-methyl-benzamide]?
**A.** IC50 [1, 3]: 1 to 10 µM; IC50 [2, 4]: < 0.1 µM

**Q.** Which IC50 [1, 7] does the source give for `COc1cc2c(cc1Nc1ncc(Cl)c(Nc3ccc(N4CCOCC4)cc3-n3cccn3)n1)CCN(CC(=O)N(C)C)CC2` [Example 626, 2-{7-[5-Chloro-4-(4-morpholin-4-yl-2-pyrazol-1-yl-phenylamino)-pyrimidin-2-ylamino]-8-methoxy-1,2,4,5-tetrahydro-benzo[d]azepin-3-yl}-N,N-dimethyl-acetamide] here?
**A.** Its IC50 is < 0.1 µM.

**Q.** And the IC50 [2, 8]?
**A.** The IC50 was > 10 µM.

**Q.** How did the IC50 [1, 5] turn out when `COc1cc2c(cc1Nc1ncc(Cl)c(Nc3ccccc3-n3cccn3)n1)CCC(NCC(F)F)CC2` (stereo not shown) [Example 1059, 5-Chloro-N*2*-[7-(2,2-difluoro-ethylamino)-3-methoxy-6,7,8,9-tetrahydro-5H-benzocyclohepten-2-yl]-N*4*-(2-pyrazol-1-yl-phenyl)-pyrimidine-2,4-diamine] was run?
**A.** The IC50 was < 0.1 µM.

**Q.** And the IC50 [2, 6]?
**A.** Its IC50 is > 10 µM.

**Q.** `O=C1CCCc2ccc(Nc3ncc(Cl)c(Nc4c(F)cccc4OCC4CCOC4)n3)cc2N1` (stereo not shown) [Example 1276, 8-{5-Chloro-4-[2-fluoro-6-(tetrahydro-furan-3-ylmethoxy)-phenylamino]-pyrimidin-2-ylamino}-1,3,4,5-tetrahydro-1-benzazepin-2-one] was tested. Which IC50 [1, 5] did it give?
**A.** The IC50 was 0.1 to 1 µM.

**Q.** What about the IC50 [2, 6] of the same compound?
**A.** The IC50 was 0.1 to 1 µM.

**Q.** For `CCNC(=O)c1cccc(F)c1Nc1nc(Nc2ccc3c(c2)N(CC)C(=O)CCC3(C)C)ncc1Cl` [Example 1579, 2-[5-Chloro-2-(1-ethyl-5,5-dimethyl-2-oxo-2,3,4,5-tetrahydro-1H-benzo[b]azepin-8-ylamino)-pyrimidin-4-ylamino]-N-ethyl-3-fluoro-benzamide], which IC50 [1, 3] is on record?
**A.** Its IC50 is < 0.1 µM.

**Q.** And the IC50 [2, 4]?
**A.** Its IC50 is < 0.1 µM.

**Q.** Which IC50 [1, 9] does the source give for `NC(=O)C1C2C=CC(C2)C1Nc1nc(Nc2ccc3c(c2)CCN(CC(O)C(F)(F)F)CC3)ncc1Cl` (mixture of isomers) [Example 334, (2-exo, 3-exo)-3-{5-Chloro-2-[3-((R)-3,3,3-trifluoro-2-hydroxy-propyl)-2,3,4,5-tetrahydro-1H-benzo[d]azepin-7-ylamino]-pyrimidin-4-ylamino}-bicyclo[2.2.1]hept-5-ene-2-carboxylic acid amide] here?
**A.** Its IC50 is < 0.1 µM.

**Q.** And the IC50 [2, 10]?
**A.** The IC50 was 0.1 to 1 µM.

**Q.** How did the IC50 [1, 3] turn out when `CNCc1ccccc1Nc1nc(Nc2ccc3c(c2)CCOC(=O)N3C)ncc1Cl` [Example 1791, 2-[5-Chloro-4-(2-methylaminomethyl-phenylamino)-pyrimidin-2-ylamino]-5-methyl-8,9-dihydro-5H-7-oxa-5-aza-benzocyclohepten-6-one] was run?
**A.** The IC50 was 1 to 10 µM.

**Q.** What about the IC50 [2, 4] of the same compound?
**A.** Its IC50 is 1 to 10 µM.

**Q.** Which results are given for `CCCNC(=O)c1ccccc1Nc1nc(Nc2ccc3c(c2)C(C)(C)CCC(=O)N3)ncc1Cl` [Example 1022, 2-[5-Chloro-2-(5,5-dimethyl-2-oxo-2,3,4,5-tetrahydro-1H-benzo[b]azepin-7-ylamino)-pyrimidin-4-ylamino]-N-propyl-benzamide]?
**A.** IC50 [1, 5]: < 0.1 µM; IC50 [2, 6]: 0.1 to 1 µM

**Q.** For `COc1cc2c(cc1Nc1ncc(Cl)c(Nc3ccccc3S(C)(=O)=O)n1)CCN(CC(=O)N(C)C)CC2` [Example 1142, 2-{7-[5-Chloro-4-(2-methanesulfonyl-phenylamino)-pyrimidin-2-ylamino]-8-methoxy-1,2,4,5-tetrahydro-benzo[d]azepin-3-yl}-N,N-dimethyl-acetamide], which IC50 [1, 5] is on record?
**A.** Its IC50 is < 0.1 µM.

**Q.** What about the IC50 [2, 6] of the same compound?
**A.** The IC50 was 1 to 10 µM.

**Q.** `COCCN1CCc2ccc(Nc3ncc(Cl)c(Nc4ccccc4OCC#N)n3)cc2CC1` [Example 1240, (2-{5-Chloro-2-[3-(2-methoxy-ethyl)-2,3,4,5-tetrahydro-1H-3-benzazepin-7-ylamino]-pyrimidin-4-ylamino}-phenoxy)-acetonitrile] was tested. Which IC50 [1, 5] did it give?
**A.** The IC50 was < 0.1 µM.

**Q.** What about the IC50 [2, 6] of the same compound?
**A.** Its IC50 is < 0.1 µM.

**Q.** Which results are given for `COc1cc2c(cc1Nc1ncc(Cl)c(Nc3ccc(N(C)C)cc3S(=O)(=O)C(C)C)n1)CCN(CC(=O)N(C)C)CC2` [Example 1187, 2-(7-{5-Chloro-4-[4-dimethylamino-2-(propane-2-sulfonyl)-phenylamino]-pyrimidin-2-ylamino}-8-methoxy-1,2,4,5-tetrahydro-benzo[d]azepin-3-yl)-N,N-dimethyl-acetamide]?
**A.** IC50 [1, 5]: < 0.1 µM; IC50 [2, 6]: > 10 µM

**Q.** What does the source list for `Cn1ccnc1-c1ccccc1Nc1nc(Nc2ccc3c(c2)C(C)(C)CCC(=O)N3)ncc1Cl` [Example 397, 7-{5-Chloro-4-[2-(1-methyl-1H-imidazol-2-yl)-phenylamino]-pyrimidin-2-ylamino}-5,5-dimethyl-1,3,4,5-tetrahydro-benzo[b]azepin-2-one]?
**A.** IC50 [1, 9]: < 0.1 µM; IC50 [2, 10]: 0.1 to 1 µM

**Q.** For `COc1cc2c(cc1Nc1ncc(Cl)c(Nc3ccc(N(C)C)cc3OC)n1)CCN(CCN1CCOCC1)CC2` [Example 1537, 5-Chloro-N(4)-(4-dimethylamino-2-methoxy-phenyl)-N(2)-[8-methoxy-3-(2-morpholin-4-yl-ethyl)-2,3,4,5-tetrahydro-1H-3-benzazepin-7-yl]-pyrimidine-2,4-diamine], which IC50 [1, 3] is on record?
**A.** The IC50 was < 0.1 µM.

**Q.** And the IC50 [2, 4]?
**A.** Its IC50 is > 10 µM.

**Q.** For `COc1cc2c(cc1Nc1ncc(Cl)c(N[C@@H]3[C@H](C(N)=O)[C@H]4C=C[C@@H]3C4)n1)CCOC(=O)N2C` [Example 1509, (1R,2R,3S,4S)-3-[5-Chloro-2-(3-methoxy-5-methyl-6-oxo-5,6,8,9-tetrahydro-7-oxa-5-aza-benzocyclohepten-2-ylamino)-pyrimidin-4-ylamino]-bicyclo[2.2.1]hept-5-ene-2-carboxylic acid amide], which IC50 [1, 3] is on record?
**A.** Its IC50 is < 0.1 µM.

**Q.** And the IC50 [2, 4]?
**A.** Its IC50 is > 10 µM.
